{"source": "patent US20060004026A1", "about": "“Compositions for ameliorating attention-deficient/hyperactivity disorder” (priority 2001, published 2006)", "key": {"[1]": {"system": "patients diagnosed attention-deficit hyperactivity disorder", "experiment": "administration to patients diagnosed attention-deficit hyperactivity disorder", "type": "in vivo, human", "description": "The “attention-deficit hyperactivity disorder,” as referred to herein, to which the composition of the present invention is applied is a symptom judged on the basis of a diagnostic method for ADHD, as defined in DSM-IV Seishin Shogai no Shindan•Tokei Manyuaru (Diagnosis and Statistic Manuals for DSM-IV Mental Disorders) (published by Igakushoin, 1996). Concretely, an individual with ADHD meets the following criteria.\nIn addition, the diagnosis is made under the conditions that some of these symptoms have caused problems before reaching 7-years old, and that any problems take place at present in two or more different locations (examples: school and home). Also, the judgment is made only in the case where serious disorders are recognized in social life, schoolwork and vocational work, and any of the symptoms are not caused by other diseases.\nThe exhibition of the action for mitigating or alleviating attention-deficit hyperactivity disorder by theanine can be evaluated by a clinical test in which theanine is administered to a patient who meets the above-mentioned [Criteria for Diagnosis], and any ameliorative effects on attention-deficit hyperactivity disorder are observed, as compared to that before the administration of theanine.\nFive patients who were diagnosed attention-deficit hyperactivity disorder by doctors were administered with a composition containing L-theanine. The composition was prepared so that L-theanine was mixed with crystalline cellulose, sucrose fatty acid ester, reducing maltose, silicon dioxide, lactose and aspartame so as to have the content of L-theanine of 20% by weight, and tableting the mixture to prepare a tablet."}, "[2]": {"system": "mouse", "experiment": "acute toxic test using a mouse", "type": "in vivo", "conditions": "oral administration at 5 g/kg", "description": "The theanine used in the present invention has high safety. […] Also, especially L-theanine is known as a main component of umami (tastiness) of the green tea, and is also used as a food additive giving umami, without the limitation of its added amount under the regulation for food hygiene. Moreover, contrary to the conventional drugs, since there is no side effect by theanine at all, the amelioration of attention-deficit hyperactivity disorder can be safely and effectively achieved according to the composition of the present invention."}}, "data": [{"smiles": "COC(=O)C(c1ccccc1)C1CCCCN1", "note": "(stereo not drawn) [Ritalin, methylphenidate, reference compound]", "values": [{"measurement": "ADHD symptoms during the administration", "setting": "[1]; Patient 2, earlier treatment with Ritalin", "value": "stabilized"}, {"measurement": "side effects", "setting": "[1]; Patient 2, earlier treatment with Ritalin, administration was stopped", "value": "serious"}]}, {"smiles": "CCNC(=O)CC[C@H](N)C(=O)O", "note": "[L-theanine]", "values": [{"measurement": "effect judged by the doctor in charge", "setting": "[1]; Patient 1, 50 mg/day over 8 weeks", "value": "effective"}, {"measurement": "ADHD symptoms after the termination of the administration", "setting": "[1]; Patient 1, 50 mg/day over 8 weeks, tablet with 20% by weight L-theanine", "value": "substantially disappeared"}, {"measurement": "ADHD symptoms after the termination of the administration", "setting": "[1]; Patient 2 (person one), 200 mg/day over 10 weeks", "value": "substantially disappeared"}, {"measurement": "effect judged by the doctor in charge", "setting": "[1]; Patient 2, 200 mg/day over 10 weeks", "value": "effective"}, {"measurement": "ADHD symptoms", "setting": "[1]; Patient 3, 100 mg/day together with Ritalin over 1 week", "value": "substantially disappeared"}, {"measurement": "behaviour at school on the day of administration", "setting": "[1]; Patient 4, 200 mg/day only once before school", "value": "could attend the classes without any problems"}, {"measurement": "state of symptoms in the following day (maintenance by a single dosage)", "setting": "[1]; Patient 4, 200 mg/day only once, following day", "value": "returned to the original state of symptoms"}, {"measurement": "ADHD symptoms after the termination of the administration", "setting": "[1]; Patient 5, 60 mg/day over 1 week", "value": "remarkably ameliorated"}]}, {"smiles": "CCNC(=O)CC[C@H](N)C(=O)O", "note": "[theanine, γ-glutamylethylamide]", "values": [{"measurement": "abnormalities in the general states, weight and the like", "setting": "[2]", "value": "no abnormalities"}, {"measurement": "cases of death", "setting": "[2]", "value": "no cases of death"}]}]}
